Test results taken from US20110105623A1 (Biogenic Innovations, LLC, priority 2009, published 2011).

Assays:
Type in all cases: cell-based
Lactobacillus rhamnosus = assay: Growth in MRS broth fortified with MSM; details: for Growth: 0.04% MSM in MRS broth, 0-72 hours
Method: Each organism (Lactobacillus rhamnosus, Lactobacillus acidophilus, and Bifidobacterium bifidum) was grown in MRS bacterial growth medium (broth) and plated on MRS agar at different time intervals. Results are expressed in colony forming units per milliliter (cfu/mL).
The 0.1% and 0.04% test concentrations were prepared by making a 1:10 dilution of the 1% and 0.4% test solutions. Once each set of test media was plated for sterility, they were inoculated at a level of 100 μl of inoculum per 100 g or mLs of test broth (1:1000 inoculum dilutions) with each respective microorganism. All bacterial organisms were incubated at 35° C.+/−2° C. for the duration of the study.
All samples were plated on MRS agar at time 0, 12, 36, 48, 60 and 72 hours (+/−45 minutes). All preparations and plating were conducted at room temperature. All plating events were incubated at 35° C.+/−2° C. for at least 2 days or 3 days for Bifidobacterium. Test samples were plated in triplicate at each test date and the averages are reported.

Bifidobacterium bifidum = assay: Probiotic growth in media supplemented with MSM; parameters: unit not given here
Excerpt: (§1) Plates were then counted. […] Data are presented in Cfu/mL.

[1] = system: Lactobacillus delbrueckii (Lactobacillus bulgaricus); assay: Probiotic growth in media supplemented with MSM; parameters: unit not given here
Excerpt: as §1

## Methylsulfonylmethane [MSM]
Lactobacillus rhamnosus; 0 hours after inoculation
  Growth: 1.7 × 10^6 cfu/mL
Lactobacillus rhamnosus; 12 hours after inoculation
  Growth: 2.1 × 10^7 cfu/mL
Lactobacillus rhamnosus; 24 hours after inoculation
  Growth: 1.5 × 10^9 cfu/mL
Lactobacillus rhamnosus; 36 hours after inoculation
  Growth: 1.8 × 10^9 cfu/mL
Lactobacillus rhamnosus; 48 hours after inoculation
  Growth: 2.1 × 10^9 cfu/mL
Lactobacillus rhamnosus; 60 hours after inoculation
  Growth: 2.6 × 10^9 cfu/mL
Lactobacillus rhamnosus; first 12 hours, 0.2% MSM
  higher than 0% control: 41%
Lactobacillus rhamnosus; first 12 hours, 1% MSM
  higher than 0% control: 47%
Lactobacillus rhamnosus; first 12 hours, all MSM samples
  recovered more than the 0% control: at least 12%
Bifidobacterium bifidum; 0.125% MSM, 0 h
  Growth of Bifidobacteruim bifidum: 1.64
Bifidobacterium bifidum; 0.125% MSM, 8 h
  Growth of Bifidobacteruim bifidum: 1.73
Bifidobacterium bifidum; 0.125% MSM, 16 h
  Growth of Bifidobacteruim bifidum: 6.55
Bifidobacterium bifidum; 0.125% MSM, 24 h
  Growth of Bifidobacteruim bifidum: 2.70
Bifidobacterium bifidum; 0.125% MSM, 32 h
  Growth of Bifidobacteruim bifidum: 3.37
Bifidobacterium bifidum; 0.125% MSM, 40 h
  Growth of Bifidobacteruim bifidum: 4.19
Bifidobacterium bifidum; 0.125% MSM, 48 h
  Growth of Bifidobacteruim bifidum: 6.41
Bifidobacterium bifidum; 0.125% MSM, 56 h
  Growth of Bifidobacteruim bifidum: 9.97
Bifidobacterium bifidum; 0.125% MSM, 64 h
  Growth of Bifidobacteruim bifidum: 11.34
Bifidobacterium bifidum; 0.125% MSM, 72 h
  Growth of Bifidobacteruim bifidum: 10.00
Bifidobacterium bifidum; 0.2% MSM, 0 h
  Growth of Bifidobacteruim bifidum: 1.82
Bifidobacterium bifidum; 0.2% MSM, 8 h
  Growth of Bifidobacteruim bifidum: 2.08
Bifidobacterium bifidum; 0.2% MSM, 16 h
  Growth of Bifidobacteruim bifidum: 5.22
Bifidobacterium bifidum; 0.2% MSM, 24 h
  Growth of Bifidobacteruim bifidum: 6.15
Bifidobacterium bifidum; 0.2% MSM, 32 h
  Growth of Bifidobacteruim bifidum: 5.03
Bifidobacterium bifidum; 0.2% MSM, 40 h
  Growth of Bifidobacteruim bifidum: 8.14
Bifidobacterium bifidum; 0.2% MSM, 48 h
  Growth of Bifidobacteruim bifidum: 8.55
Bifidobacterium bifidum; 0.2% MSM, 56 h
  Growth of Bifidobacteruim bifidum: 9.00
Bifidobacterium bifidum; 0.2% MSM, 64 h
  Growth of Bifidobacteruim bifidum: 10.19
Bifidobacterium bifidum; 0.2% MSM, 72 h
  Growth of Bifidobacteruim bifidum: 9.10
Bifidobacterium bifidum; 0.50% MSM, 0 h
  Growth of Bifidobacteruim bifidum: 1.85
Bifidobacterium bifidum; 0.50% MSM, 8 h
  Growth of Bifidobacteruim bifidum: 1.99
Bifidobacterium bifidum; 0.50% MSM, 16 h
  Growth of Bifidobacteruim bifidum: 6.53
Bifidobacterium bifidum; 0.50% MSM, 24 h
  Growth of Bifidobacteruim bifidum: 3.14
Bifidobacterium bifidum; 0.50% MSM, 32 h
  Growth of Bifidobacteruim bifidum: 3.52
Bifidobacterium bifidum; 0.50% MSM, 40 h
  Growth of Bifidobacteruim bifidum: 4.62
Bifidobacterium bifidum; 0.50% MSM, 48 h
  Growth of Bifidobacteruim bifidum: 4.51
Bifidobacterium bifidum; 0.50% MSM, 56 h
  Growth of Bifidobacteruim bifidum: 6.05
Bifidobacterium bifidum; 0.50% MSM, 64 h
  Growth of Bifidobacteruim bifidum: 9.55
Bifidobacterium bifidum; 0.50% MSM, 72 h
  Growth of Bifidobacteruim bifidum: 7.52
Bifidobacterium bifidum; 1% MSM, 0 h
  Growth of Bifidobacteruim bifidum: 1.48
Bifidobacterium bifidum; 1% MSM, 8 h
  Growth of Bifidobacteruim bifidum: 1.70
Bifidobacterium bifidum; 1% MSM, 16 h
  Growth of Bifidobacteruim bifidum: 6.81
Bifidobacterium bifidum; 1% MSM, 24 h
  Growth of Bifidobacteruim bifidum: 2.75
Bifidobacterium bifidum; 1% MSM, 32 h
  Growth of Bifidobacteruim bifidum: 3.37
Bifidobacterium bifidum; 1% MSM, 40 h
  Growth of Bifidobacteruim bifidum: 3.48
Bifidobacterium bifidum; 1% MSM, 48 h
  Growth of Bifidobacteruim bifidum: 3.90
Bifidobacterium bifidum; 1% MSM, 56 h
  Growth of Bifidobacteruim bifidum: 8.32
Bifidobacterium bifidum; 1% MSM, 64 h
  Growth of Bifidobacteruim bifidum: 8.02
Bifidobacterium bifidum; 1% MSM, 72 h
  Growth of Bifidobacteruim bifidum: 9.52
Bifidobacterium bifidum; 5% MSM, 0 h
  Growth of Bifidobacteruim bifidum: 1.00
Bifidobacterium bifidum; 5% MSM, 8 h
  Growth of Bifidobacteruim bifidum: 2.29
Bifidobacterium bifidum; 5% MSM, 16 h
  Growth of Bifidobacteruim bifidum: 6.71
Bifidobacterium bifidum; 5% MSM, 24 h
  Growth of Bifidobacteruim bifidum: 5.72
Bifidobacterium bifidum; 5% MSM, 32 h
  Growth of Bifidobacteruim bifidum: 10.32
Bifidobacterium bifidum; 5% MSM, 40 h
  Growth of Bifidobacteruim bifidum: 12.02
Bifidobacterium bifidum; 5% MSM, 48 h
  Growth of Bifidobacteruim bifidum: 10.54
Bifidobacterium bifidum; 5% MSM, 56 h
  Growth of Bifidobacteruim bifidum: 10.92
Bifidobacterium bifidum; 5% MSM, 64 h
  Growth of Bifidobacteruim bifidum: 12.04
Bifidobacterium bifidum; 5% MSM, 72 h
  Growth of Bifidobacteruim bifidum: 12.43
Bifidobacterium bifidum; […] MSM, 0 h
  Growth of Bifidobacteruim bifidum: 1.64
Bifidobacterium bifidum; […] MSM, 8 h
  Growth of Bifidobacteruim bifidum: 1.60
Bifidobacterium bifidum; […] MSM, 16 h
  Growth of Bifidobacteruim bifidum: 6.21
Bifidobacterium bifidum; […] MSM, 24 h
  Growth of Bifidobacteruim bifidum: 2.52
Bifidobacterium bifidum; […] MSM, 32 h
  Growth of Bifidobacteruim bifidum: 3.37
Bifidobacterium bifidum; […] MSM, 40 h
  Growth of Bifidobacteruim bifidum: 3.52
Bifidobacterium bifidum; […] MSM, 48 h
  Growth of Bifidobacteruim bifidum: 3.95
Bifidobacterium bifidum; […] MSM, 56 h
  Growth of Bifidobacteruim bifidum: 8.35
Bifidobacterium bifidum; […] MSM, 64 h
  Growth of Bifidobacteruim bifidum: 8.30
Bifidobacterium bifidum; […] MSM, 72 h
  Growth of Bifidobacteruim bifidum: 10.12
[1]; 0.125% MSM, 0 h
  Growth of Lactobacillus bulgaricus: 2.29
[1]; 0.125% MSM, 8 h
  Growth of Lactobacillus bulgaricus: 4.15
[1]; 0.125% MSM, 16 h
  Growth of Lactobacillus bulgaricus: 8.22
[1]; 0.125% MSM, 24 h
  Growth of Lactobacillus bulgaricus: 9.04
[1]; 0.125% MSM, 32 h
  Growth of Lactobacillus bulgaricus: 8.55
[1]; 0.125% MSM, 40 h
  Growth of Lactobacillus bulgaricus: 9.29
[1]; 0.125% MSM, 48 h
  Growth of Lactobacillus bulgaricus: 10.94
[1]; 0.125% MSM, 56 h
  Growth of Lactobacillus bulgaricus: 8.00
[1]; 0.125% MSM, 64 h
  Growth of Lactobacillus bulgaricus: 8.59
[1]; 0.125% MSM, 72 h
  Growth of Lactobacillus bulgaricus: 6.74
[1]; 0.2% MSM, 0 h
  Growth of Lactobacillus bulgaricus: 2.25
[1]; 0.2% MSM, 8 h
  Growth of Lactobacillus bulgaricus: 4.08
[1]; 0.2% MSM, 16 h
  Growth of Lactobacillus bulgaricus: 8.34
[1]; 0.2% MSM, 24 h
  Growth of Lactobacillus bulgaricus: 9.10
[1]; 0.2% MSM, 32 h
  Growth of Lactobacillus bulgaricus: 9.60
[1]; 0.2% MSM, 40 h
  Growth of Lactobacillus bulgaricus: 9.11
[1]; 0.2% MSM, 48 h
  Growth of Lactobacillus bulgaricus: 11.07
[1]; 0.2% MSM, 56 h
  Growth of Lactobacillus bulgaricus: 8.79
[1]; 0.2% MSM, 64 h
  Growth of Lactobacillus bulgaricus: 8.79
[1]; 0.2% MSM, 72 h
  Growth of Lactobacillus bulgaricus: 6.72
[1]; 0.50% MSM, 0 h
  Growth of Lactobacillus bulgaricus: 2.23
[1]; 0.50% MSM, 8 h
  Growth of Lactobacillus bulgaricus: 4.42
[1]; 0.50% MSM, 16 h
  Growth of Lactobacillus bulgaricus: 8.28
[1]; 0.50% MSM, 24 h
  Growth of Lactobacillus bulgaricus: 9.05
[1]; 0.50% MSM, 32 h
  Growth of Lactobacillus bulgaricus: 9.54
[1]; 0.50% MSM, 40 h
  Growth of Lactobacillus bulgaricus: 9.40
[1]; 0.50% MSM, 48 h
  Growth of Lactobacillus bulgaricus: 10.82
[1]; 0.50% MSM, 56 h
  Growth of Lactobacillus bulgaricus: 9.14
[1]; 0.50% MSM, 64 h
  Growth of Lactobacillus bulgaricus: 8.80
[1]; 0.50% MSM, 72 h
  Growth of Lactobacillus bulgaricus: 6.72
[1]; 1% MSM, 0 h
  Growth of Lactobacillus bulgaricus: 2.29
[1]; 1% MSM, 8 h
  Growth of Lactobacillus bulgaricus: 4.83
[1]; 1% MSM, 16 h
  Growth of Lactobacillus bulgaricus: 8.36
[1]; 1% MSM, 24 h
  Growth of Lactobacillus bulgaricus: 9.03
[1]; 1% MSM, 32 h
  Growth of Lactobacillus bulgaricus: 9.31
[1]; 1% MSM, 40 h
  Growth of Lactobacillus bulgaricus: 9.34
[1]; 1% MSM, 48 h
  Growth of Lactobacillus bulgaricus: 11.23
[1]; 1% MSM, 56 h
  Growth of Lactobacillus bulgaricus: 8.11
[1]; 1% MSM, 64 h
  Growth of Lactobacillus bulgaricus: 6.50
[1]; 1% MSM, 72 h
  Growth of Lactobacillus bulgaricus: 6.45
[1]; 5% MSM, 0 h
  Growth of Lactobacillus bulgaricus: 2.19
[1]; 5% MSM, 8 h
  Growth of Lactobacillus bulgaricus: 3.28
[1]; 5% MSM, 16 h
  Growth of Lactobacillus bulgaricus: 7.39
[1]; 5% MSM, 24 h
  Growth of Lactobacillus bulgaricus: 8.50
[1]; 5% MSM, 32 h
  Growth of Lactobacillus bulgaricus: 9.29
[1]; 5% MSM, 40 h
  Growth of Lactobacillus bulgaricus: 9.37
[1]; 5% MSM, 48 h
  Growth of Lactobacillus bulgaricus: 10.92
[1]; 5% MSM, 56 h
  Growth of Lactobacillus bulgaricus: 10.07
[1]; 5% MSM, 64 h
  Growth of Lactobacillus bulgaricus: 10.96
[1]; 5% MSM, 72 h
  Growth of Lactobacillus bulgaricus: 8.62
[1]; […] MSM, 0 h
  Growth of Lactobacillus bulgaricus: 2.26
[1]; […] MSM, 8 h
  Growth of Lactobacillus bulgaricus: 4.57
[1]; […] MSM, 16 h
  Growth of Lactobacillus bulgaricus: 8.09
[1]; […] MSM, 24 h
  Growth of Lactobacillus bulgaricus: 9.01
[1]; […] MSM, 32 h
  Growth of Lactobacillus bulgaricus: 9.15
[1]; […] MSM, 40 h
  Growth of Lactobacillus bulgaricus: 9.27
[1]; […] MSM, 48 h
  Growth of Lactobacillus bulgaricus: 11.37
[1]; […] MSM, 56 h
  Growth of Lactobacillus bulgaricus: 8.23
[1]; […] MSM, 64 h
  Growth of Lactobacillus bulgaricus: 8.75
[1]; […] MSM, 72 h
  Growth of Lactobacillus bulgaricus: 6.51
